Assay results taken from paper PMC11513924, “Addressing the Intracellular Vestibule of the Plasmodial Lactate Transporter PfFNT by p-Substituted Inhibitors Amplifies In Vitro Activity” (Journal of Medicinal Chemistry, 2024).
Where two headings read alike, the source gives them in different places.

Columns and labels:
[1] = test system: Plasmodium falciparum 3D7 parasites; assay: P. falciparum 3D7 culture growth assay in erythrocytes (in vitro activity); format: cell-based; details: for EC50 / activity at 0.05 µM / activity at 0.1 µM / activity at 0.2 µM: Plasmodium falciparum, 3D7, Erythrocyte, 48 h; for EC50: read-out: EC50 (in vitro, 3D7); for activity at 0.05 µM: 50 nM compound, read-out: % Growth at 50 nM (in vitro, 3D7); for activity at 0.05 µM / activity at 0.1 µM / activity at 0.2 µM: % of untreated control; for activity at 0.1 µM: 100 nM compound, read-out: % Growth at 100 nM (in vitro, 3D7); for activity at 0.2 µM: 200 nM compound, read-out: % Growth at 200 nM (in vitro, 3D7)
Procedure: The parasitemia was measured using an LSR II FACS (BD Biosciences) as described.[34],[35] Growth was assessed as % of untreated control. EC50 curves were plotted using Graph Pad Prism.
Transport assays in yeast were done in triplicate biological replicates. At least nine technical replicates were measured around the IC50 value, concentrations with no or full inhibition were determined from at least three technical replicates. […] IC50 and EC50 curves were fitted by the Hill equation with variable slope (Graph Pad Prism 10). Error bars denote ± SEM (for n ≥ 3) or ± range (for n = 2). […] Cytotoxicity was determined from biological triplicates; error is shown as SEM.

PfFNT [2] = target: T1, PfFNT (Plasmodium falciparum, UniProt O77389); assay: Fluorescence cross-correlation spectroscopy (FCCS) competition binding to solubilized PfFNT-GFP
T1 construct: expressed in transfected cells; membranes solubilized
T1 sequence (O77389 1-309): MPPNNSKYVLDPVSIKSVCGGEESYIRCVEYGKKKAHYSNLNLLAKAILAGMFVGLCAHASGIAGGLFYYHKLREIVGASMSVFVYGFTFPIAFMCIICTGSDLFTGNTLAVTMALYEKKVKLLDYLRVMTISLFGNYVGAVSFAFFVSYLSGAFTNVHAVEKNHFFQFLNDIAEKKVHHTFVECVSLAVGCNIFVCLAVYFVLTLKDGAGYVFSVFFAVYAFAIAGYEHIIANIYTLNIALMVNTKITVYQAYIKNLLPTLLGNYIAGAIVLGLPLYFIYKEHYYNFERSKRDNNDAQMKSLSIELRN
Procedure: FCCS measurements were conducted and analyzed as before.[20],[30] Briefly, membranes of stably transfected cells expressing PfFNT with a C-terminal GFP (green) were solubilized. BH267.meta 2 fused with DY647 (red) was used as a tracer to monitor the binding of compounds in a competition assay. Assays were done in […] glass bottom plates (cat. no. PS96B-G175, SWISSCI, Switzerland) using a plate reader (Insight, Evotec Technologies, Germany) fitted with a U-Apo300 40× water immersion lens, NA 1.15 (Olympus, Japan). Excitation was done with an argon-ion laser (488 nm) and a helium–neon laser (633 nm). Fluorescence fluctuations were recorded 10 times for 5 s per sample and fitted using FCS+ plus Analyze (PerkinElmer software). Initially, IC50 values were determined from the concentration of the dual labeled complex titrated against a competitor in a range of 100 pM to 100 μM (Figure S1). Then, Ki values were calculated using the Cheng Prusoff equation[31] based on the previously determined KD value for the BH267.meta-DY647 tracer.[20]

PfFNT [3] = target: T1, PfFNT; assay: Yeast-based PfFNT 14C-lactate transport assay; format: cell-based
Procedure: Lactate transport functionality of PfFNT was assayed as described before.[4] Briefly, Saccharomyces cerevisiae W303-1A jen1Δady2Δcells[32] (MATa, can1-100, ade2-loc, his3-11-15, leu2-3,-112, trp1-1-1, ura3-1, jen1::kanMX4, ady2::hphMX4) kindly provided by M. Casal expressing PfFNT was grown at 29 °C to an OD600 of 1 (±0.1). Harvested cells were resuspended to an OD600 of 50 (±5) in 50 mM HEPES/Tris, pH 6.8 (±0.1). 10–15 min prior to the assay, 80 μL of yeast suspension were added to 1 μL of DMSO with or without inhibitor in a 1.5 mL reaction tube at 18 °C. Twenty μL of L-lactate solution spiked with [1-^14C]-L-lactate (Hartmann Analytic) was added yielding a 1 mM inward gradient with 0.04 μCi label. Transport was stopped after 30 s by abrupt dilution with 1 mL of ice-cold water, vacuum filtration via GF/C filter membranes (Whatman), and washing with 7 mL of ice-cold water. The radio label was analyzed by liquid scintillation counting in 3 mL of scintillation cocktail (Rotiszint eco plus, Carl Roth) using a Packard TriCarb 2900 TR (PerkinElmer Inc.).
Transport assays in yeast were done in triplicate biological replicates. At least nine technical replicates were measured around the IC50 value, concentrations with no or full inhibition were determined from at least three technical replicates. EC50-values were determined from 2 to 4 biological replicates. IC50 and EC50 curves were fitted by the Hill equation with variable slope (Graph Pad Prism 10). Error bars denote ± SEM (for n ≥ 3) or ± range (for n = 2). For the EC50-value of 7a the error of the fitting of the curve is given. Cytotoxicity was determined from biological triplicates; error is shown as SEM.

[4] = 14C-lactate transport, PfFNT wild type, read-out: IC50 (transport, yeast)

SMILES | EC50 ([1]; cultures in erythrocytes) [nM] | Ki (PfFNT [2]) [nM] | IC50 (PfFNT [3]; [4]) [µM] | EC50 [1] [nM] | Ki (PfFNT [2]; competition against BH267.meta-DY647 tracer, Cheng Prusoff, read-out: Ki (FCCS, protein)) [nM] | IC50 (PfFNT [3]) [µM] | activity at 0.05 µM [1] [%] | activity at 0.1 µM [1] [%] | activity at 0.2 µM [1] [%] | times lower in vitro activity (vs 7e) ([1]; 3D7)
O=C(/C=C(\O)C(F)(F)c1ccccc1)c1cccnc1 [3a, 4,4-Difluoro-3-hydroxy-4-phenyl-1-(pyridin-3-yl)but-2-en-1-one] | 36600 ± 11100 | 5840 ± 960 | 1.14 ± 0.2 |  |  |  |  |  |  | 
O=C(/C=C(\O)C(F)(F)C(F)(F)C(F)(F)F)c1cccnc1 [3b, 4,4,5,5,6,6,6-Heptafluoro-3-hydroxy-1-(pyridin-3-yl)hex-2-en-1-on] |  |  |  | 1170 ± 30 | 30 ± 3 | 0.34 ± 0.05 |  |  |  | 
COC(F)(F)C(F)(F)/C(O)=C/C(=O)c1cccnc1 [3c, 4,4,5,5-Tetrafluoro-3-hydroxy-5-methoxy-1-(pyridin-3-yl)pent-2-en-1-one] | 3390 ± 10 | 93 ± 2 | 0.31 ± 0.01 |  |  |  |  |  |  | 
O=C(/C=C(\O)C(F)(F)C(F)(F)Cl)c1cccnc1 [3d, 5-Chloro-4,4,5,5-tetrafluoro-3-hydroxy-1-(pyridin-3-yl)pent-2-en-1-one] | 350 ± 30 | 37 ± 21 | 0.18 ± 0.03 |  |  |  |  |  |  | 
FC(F)(F)C(F)(F)c1nc(-c2cccnc2)n[nH]1 [4a, 3-[5-(1,1,2,2,2-Pentafluoroethyl)-1H-1,2,4-triazol-3-yl]pyridine] |  | 1610 ± 298 | 8.44 ± 1.85 |  |  |  |  |  |  | 
FC(F)(F)C(F)(F)c1cc(-c2cccnc2)n[nH]1 [4b, 3-[5-(1,1,2,2,2-Pentafluoroethyl)-1H-pyrazol-3-yl]pyridine] |  | > 80000 | ~1000 |  |  |  |  |  |  | 
O=C(/C=C(\O)C(F)(F)C(F)(F)F)c1ccco1 [5a, 4,4,5,5,5-Pentafluoro-1-(furan-2-yl)-3-hydroxypent-2-en-1-one] | 1980 ± 40 | 37 ± 5 | 0.17 ± 0.06 |  |  |  |  |  |  | 
O=C(/C=C(\O)C(F)(F)C(F)(F)F)c1ccoc1 [5b, 4,4,5,5,5-Pentafluoro-1-(furan-3-yl)-3-hydroxypent-2-en-1-one] | 860 ± 80 | 72 ± 6 | 0.1 ± 0.01 |  |  |  |  |  |  | 
O=C(/C=C(\O)C(F)(F)C(F)(F)F)c1cccs1 [5c, 4,4,5,5,5-Pentafluoro-3-hydroxy-1-(thiophen-2-yl)pent-2-en-1-one] | 1920 ± 170 | 45 ± 25 | 0.11 ± 0.01 |  |  |  |  |  |  | 
O=C(/C=C(\O)C(F)(F)C(F)(F)F)c1ccsc1 [5d, 4,4,5,5,5-Pentafluoro-3-hydroxy-1-(thiophen-3-yl)pent-2-en-1-one] | 1870 ± 150 | 85 ± 4 | 0.15 ± 0.01 |  |  |  |  |  |  | 
O=C(/C=C(\O)C(F)(F)C(F)(F)F)c1ccc(NCc2ccccc2)nc1 [7a, 1-[6-(Benzylamino)pyridin-3-yl]-4,4,5,5,5-pentafluoro-3-hydroxypent-2-en-1-one] | 77.9 | 32 ± 15 | 0.51 ± 0.15 |  |  |  | 71 | 32 | 14 | 
Nc1ccc(C(=O)/C=C(\O)C(F)(F)C(F)(F)F)cn1 [7b, 1-(6-Aminopyridin-3-yl)-4,4,5,5,5-pentafluoro-3-hydroxypent-2-en-1-one] |  | 31 ± 6 | 0.19 ± 0.02 |  |  |  | 79 | 65 | 29 | at least 3 times
CNc1ccc(C(=O)/C=C(\O)C(F)(F)C(F)(F)F)cn1 [7c, 4,4,5,5,5-Pentafluoro-3-hydroxy-1-(6-(methylamino)pyridin-3-yl)pent-2-en-1-one] |  | 36 ± 12 | 0.13 ± 0.02 |  |  |  | 103 | 97 | 85 | 
CCNc1ccc(C(=O)/C=C(\O)C(F)(F)C(F)(F)F)cn1 [7d, 1-(6-(Ethylamino)pyridin-3-yl)-4,4,5,5,5-pentafluoro-3-hydroxypent-2-en-1-one] |  | 21 ± 5 | 0.12 ± 0.01 |  |  |  | 45 | 13 | 6 | 
CCCCNc1ccc(C(=O)/C=C(\O)C(F)(F)C(F)(F)F)cn1 [7f, 1-(6-(Butylamino)pyridin-3-yl)-4,4,5,5,5-pentafluoro-3-hydroxypent-2-en-1-one] |  | 27 ± 4 | 0.33 ± 0.01 |  |  |  | 25 | 15 | 10 | 
CCCCCNc1ccc(C(=O)/C=C(\O)C(F)(F)C(F)(F)F)cn1 [7g, 4,4,5,5,5-Pentafluoro-3-hydroxy-1-(6-(pentylamino)pyridin-3-yl)pent-2-en-1-one] |  | 13 ± 1 | 0.39 ± 0.03 |  |  |  | 37 | 12 | 6 | 
COCCCNc1ccc(C(=O)/C=C(\O)C(F)(F)C(F)(F)F)cn1 [7h, 4,4,5,5,5-Pentafluoro-3-hydroxy-1-(6-((3-methoxypropyl)amino)pyridin-3-yl)pent-2-en-1-one] |  | 55 ± 6 | 0.16 ± 0.01 |  |  |  | 65 |  | 17 | 
O=C(/C=C(\O)C(F)(F)C(F)(F)F)c1ccc(NCC(F)(F)F)nc1 [7i, 4,4,5,5,5-Pentafluoro-3-hydroxy-1-(6-((2,2,2-trifluoroethyl)amino)pyridin-3-yl)pent-2-en-1-one] |  | 24 ± 6 | 0.21 ± 0.02 |  |  |  | 71 | 38 | 9 | 
CC(C)CNc1ccc(C(=O)/C=C(\O)C(F)(F)C(F)(F)F)cn1 [7j, 4,4,5,5,5-Pentafluoro-3-hydroxy-1-(6-(isobutylamino)pyridin-3-yl)pent-2-en-1-one] |  | 30 ± 3 | 0.28 ± 0.03 |  |  |  | 61 | 17 | 11 | 
O=C(/C=C(\O)C(F)(F)C(F)(F)F)c1ccc(NC2CC2)nc1 [7k, 1-(6-(Cyclopropylamino)pyridin-3-yl)-4,4,5,5,5-pentafluoro-3-hydroxypent-2-en-1-one] |  | 10 ± 2 | 0.19 ± 0.02 |  |  |  | 44 | 11 | 5 | 
O=C(/C=C(\O)C(F)(F)C(F)(F)F)c1ccc(NC2CCC2)nc1 [7l, 1-(6-(Cyclobutylamino)pyridin-3-yl)-4,4,5,5,5-pentafluoro-3-hydroxypent-2-en-1-one] |  | 23 ± 7 | 0.26 ± 0.03 |  |  |  | 59 | 16 | 7 | 
O=C(/C=C(\O)C(F)(F)C(F)(F)F)c1ccc(N2CCNCC2)nc1 [7t, 4,4,5,5,5-Pentafluoro-3-hydroxy-1-[6-(piperazin-1-yl)pyridin-3-yl]pent-2-en-1-one] |  | 858 ± 129 | 17.3 ± 6.5 |  |  |  |  |  |  | 
